ChEMBL document CHEMBL4431361, “Development of indole sulfonamides as cannabinoid receptor negative allosteric modulators” (Bioorg Med Chem Lett, 2016)

target: Cannabinoid receptor 1 (Homo sapiens, UniProt P21554); experiment: Negative allosteric modulation of human CB1 receptor expressed in CHO-K1 cells assessed as inhibition of CP55940 induced beta arrestin recruitment preincubated for 30 mins followed by addition of CP55940 for 90 mins by chemiluminescence assay; type: functional, cell-based; conditions: not given
Sequence (P21554 whole entry): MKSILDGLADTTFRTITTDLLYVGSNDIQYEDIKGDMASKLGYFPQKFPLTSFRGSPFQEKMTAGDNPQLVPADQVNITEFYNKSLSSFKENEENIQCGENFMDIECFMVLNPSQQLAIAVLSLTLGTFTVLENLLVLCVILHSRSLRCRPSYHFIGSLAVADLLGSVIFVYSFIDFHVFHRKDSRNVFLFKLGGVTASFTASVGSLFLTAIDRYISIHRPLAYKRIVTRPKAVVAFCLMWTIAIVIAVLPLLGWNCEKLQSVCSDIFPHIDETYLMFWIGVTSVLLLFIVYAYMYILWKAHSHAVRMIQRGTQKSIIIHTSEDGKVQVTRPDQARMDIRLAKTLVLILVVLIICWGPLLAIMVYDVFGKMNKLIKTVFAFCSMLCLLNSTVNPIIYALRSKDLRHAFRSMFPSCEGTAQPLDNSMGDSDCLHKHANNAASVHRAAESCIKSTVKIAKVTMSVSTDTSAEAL

Structure (SMILES) | IC50 [nM]
CCOc1ccc(-c2ccc(CNS(=O)(=O)c3cc4ccccc4[nH]3)cc2)cn1 | 10
CC(NS(=O)(=O)c1cc2ccccc2[nH]1)c1ccc(-c2ccc(F)cc2)cc1 (configuration not stated) | 41
COc1ccc(CNS(=O)(=O)c2cc3cc(OC)ccc3[nH]2)cc1 | 400
Cc1c(S(=O)(=O)NCc2ccccc2)[nH]c2ccccc12 | > 1000
CN(C)c1ccc(-c2ccc(CNS(=O)(=O)c3cc4ccccc4[nH]3)cc2)cc1 | 3
O=S(=O)(NCc1cccc(-c2ccc(F)cc2)c1)c1cc2ccccc2[nH]1 | 137
CCc1c(S(=O)(=O)NCCc2ccc(N(C)C)cc2)[nH]c2ccc(Cl)cc12 | 130
Cc1c(S(=O)(=O)NCCc2ccccc2)[nH]c2ccccc12 | 200 to 1000
Cc1c(S(=O)(=O)NCc2ccc(-c3ccccc3)cc2)[nH]c2ccccc12 | 8
Cc1c(S(=O)(=O)NCc2ccc(C(F)(F)F)cc2)[nH]c2ccccc12 | 250
COc1ccc2[nH]c(S(=O)(=O)NCc3ccc(-c4ccc(F)nc4)cc3)cc2c1 | 3
O=S(=O)(NCc1ccc(-c2ccccc2)cc1)c1cc2ccccc2[nH]1 | 2
COCc1c(S(=O)(=O)NCc2ccc(-c3ccccc3)cc2)[nH]c2ccccc12 | 10
O=S(=O)(NCc1ccc(-c2ccc(F)cc2)cc1)c1cc2ccccc2[nH]1 | 1
Cc1ccc(-c2ccc(CNS(=O)(=O)c3cc4ccccc4[nH]3)cc2)cc1 | 3
CCc1c(S(=O)(=O)NCCc2ccc(N3CCOCC3)cc2)[nH]c2ccc(Cl)cc12 | 500
O=S(=O)(NCc1ccc(-c2ccccc2)cc1)c1cc2ccc(F)cc2[nH]1 | 5
O=S(=O)(NCc1ccc(-c2cccnc2)cc1)c1cc2ccccc2[nH]1 | 7
COc1ccc(-c2ccc(CNS(=O)(=O)c3cc4ccccc4[nH]3)cc2)cc1 | 2
COc1cc(-c2ccc(CNS(=O)(=O)c3cc4ccccc4[nH]3)cc2)ccc1O | 33
O=S(=O)(NCc1ccc(-c2ccc(F)nc2)cc1)c1cc2ccc(Cl)cc2[nH]1 | 5

Structure (SMILES) | IC50 [nM]
O=S(=O)(NCc1ccc(-c2ccc(F)nc2F)cc1)c1cc2cc(Cl)ccc2[nH]1 | 4
O=S(=O)(NCc1ccc(-c2ccccc2)cc1)c1[nH]c2ccccc2c1CO | 12
Cc1c(S(=O)(=O)NCCN2CCOCC2)[nH]c2ccccc12 | > 1000
O=S(=O)(NCc1ccc(-c2ccc(F)cc2F)cc1)c1cc2cc(Cl)ccc2[nH]1 | 4
O=S(=O)(NCc1ccc(-c2ccccc2)cc1)c1cc2cc(Br)ccc2[nH]1 | 6
COc1ccc(-c2ccc(CNS(=O)(=O)c3cc4ccccc4[nH]3)cc2)c(OC)c1 | 22
CCc1c(S(=O)(=O)NCc2ccc(Cl)cc2)[nH]c2ccc(Cl)cc12 | > 1000
O=S(=O)(NCc1ccc(-c2ccc(F)cc2)cc1F)c1cc2cc(Cl)ccc2[nH]1 | 21
CS(=O)(=O)c1ccc(-c2ccc(CNS(=O)(=O)c3cc4ccccc4[nH]3)cc2)cc1 | 15
CCc1c(S(=O)(=O)NCCc2ccc(N3CCCCC3)cc2)[nH]c2ccc(Cl)cc12 | 120
COc1ccc(CNS(=O)(=O)c2[nH]c3ccc(Cl)cc3c2C)cc1 | 500
Cc1cc(-c2ccc(F)cc2)ccc1CNS(=O)(=O)c1cc2cc(Cl)ccc2[nH]1 | > 1000
Cc1c(S(=O)(=O)NCCCN2CCOCC2)[nH]c2ccccc12 | > 1000
O=S(=O)(NCc1ccc(-c2ccsc2)cc1)c1cc2ccccc2[nH]1 | 12
Cc1c(S(=O)(=O)NCCc2ccc(N(C)C)cc2)[nH]c2ccccc12 | 300
COc1ccc2[nH]c(S(=O)(=O)NCc3ccc(-c4ccc(C#N)cc4)cc3)cc2c1 | 8
CCc1c(C(=O)NCCc2ccc(N3CCCCC3)cc2)[nH]c2ccc(Cl)cc12 | 2
Cc1c(S(=O)(=O)NCCc2ccc(N3CCCCC3)cc2)[nH]c2ccccc12 | 200
Cc1c(S(=O)(=O)NCc2ccccn2)[nH]c2ccccc12 | > 1000
NC(=O)c1cccc(-c2ccc(CNS(=O)(=O)c3cc4ccccc4[nH]3)cc2)c1 | 300
O=S(=O)(NCc1ccc(-c2ccc(F)cc2)cc1)c1cc2cc(Br)ccc2[nH]1 | 12

Structure (SMILES) | IC50 [nM]
O=S(=O)(NCc1ccc(-c2ccc(F)cc2)cn1)c1cc2cc(Br)ccc2[nH]1 | 9
COc1ccc(CNS(=O)(=O)c2[nH]c3ccccc3c2C)cc1 | 200
COc1ccc2[nH]c(S(=O)(=O)NCc3ccc(-c4ccc(OC(F)(F)F)cc4)cc3F)cc2c1 | 40
Cc1c(S(=O)(=O)NCc2cccc(Cl)c2)[nH]c2ccccc12 | 800
Cc1c(S(=O)(=O)NCCc2ccc(N3CCOCC3)cc2)[nH]c2ccccc12 | > 1000
O=S(=O)(NCc1ccc(-c2ccc(F)cc2F)cn1)c1cc2cc(Cl)ccc2[nH]1 | 3
O=S(=O)(NCc1ccc(-c2ccc(F)cc2F)cn1)c1cc2cc(Br)ccc2[nH]1 | 4
Cc1c(S(=O)(=O)NCc2ccc(Cl)cc2)[nH]c2ccccc12 | 400
Cc1c(S(=O)(=O)NCc2cccnc2)[nH]c2ccccc12 | > 1000
O=C(O)c1ccc(-c2ccc(CNS(=O)(=O)c3cc4ccccc4[nH]3)cc2)cc1 | > 1000
Nc1ccc(-c2ccc(CNS(=O)(=O)c3cc4cc(Cl)ccc4[nH]3)cc2)cn1 | 85
Cc1c(S(=O)(=O)NCC2CCCCC2)[nH]c2ccccc12 | > 1000
CS(=O)(=O)c1ccc(-c2ccc(CNS(=O)(=O)c3cc4cc(Cl)ccc4[nH]3)cc2)cc1 | 15
Cc1cc(CNS(=O)(=O)c2cc3cc(Cl)ccc3[nH]2)ccc1-c1ccc(F)cc1 | > 1000
COc1ccc2[nH]c(S(=O)(=O)NCc3ccc(-c4ccc(CO)cc4)cc3)cc2c1 | 112
Cc1ccc(CNS(=O)(=O)c2[nH]c3ccccc3c2C)cc1 | 200
Cc1c(S(=O)(=O)NCc2ccc(Cl)c(Cl)c2)[nH]c2ccccc12 | 800
O=S(=O)(NCc1ccc(-c2ccccc2)cc1)c1cc2ccc(Cl)cc2[nH]1 | 4
COc1ccc(CNS(=O)(=O)c2cc3ccccc3[nH]2)cc1 | 200 to 400

test system: not listed separately; experiment: Half life in rat liver microsomes at 3 uM in presence of NADPH by LC-MS/MS analysis; type: ADME, Microsome; conditions: not given

Structure (SMILES) | half-life at 3 µM [min]
COc1ccc2[nH]c(S(=O)(=O)NCc3ccc(-c4ccc(F)nc4)cc3)cc2c1 | < 15
O=S(=O)(NCc1ccc(-c2ccc(F)cc2)cc1)c1cc2ccccc2[nH]1 | < 15
O=S(=O)(NCc1ccc(-c2cccnc2)cc1)c1cc2ccccc2[nH]1 | < 15
O=S(=O)(NCc1ccc(-c2ccc(F)nc2)cc1)c1cc2ccc(Cl)cc2[nH]1 | 23
O=S(=O)(NCc1ccc(-c2ccc(F)cc2F)cc1)c1cc2cc(Cl)ccc2[nH]1 | 84
O=S(=O)(NCc1ccc(-c2ccccc2)cc1)c1cc2cc(Br)ccc2[nH]1 | < 15
O=S(=O)(NCc1ccc(-c2ccc(F)cc2)cc1F)c1cc2cc(Cl)ccc2[nH]1 | 112
COc1ccc2[nH]c(S(=O)(=O)NCc3ccc(-c4ccc(C#N)cc4)cc3)cc2c1 | 26
O=S(=O)(NCc1ccc(-c2ccc(F)cc2)cc1)c1cc2cc(Br)ccc2[nH]1 | 130
O=S(=O)(NCc1ccc(-c2ccc(F)cc2)cn1)c1cc2cc(Br)ccc2[nH]1 | 25
COc1ccc2[nH]c(S(=O)(=O)NCc3ccc(-c4ccc(OC(F)(F)F)cc4)cc3F)cc2c1 | < 15
O=S(=O)(NCc1ccc(-c2ccc(F)cc2F)cn1)c1cc2cc(Br)ccc2[nH]1 | 33
CS(=O)(=O)c1ccc(-c2ccc(CNS(=O)(=O)c3cc4cc(Cl)ccc4[nH]3)cc2)cc1 | 36
O=S(=O)(NCc1ccc(-c2ccccc2)cc1)c1cc2ccc(Cl)cc2[nH]1 | < 15

test system: not listed separately; experiment: Ratio of drug level in […] brain to blood at 30mg/kg, ip after 1 hr by HPLC/MS/MS method; type: ADME, organism-based; conditions: not given

Structure (SMILES) | Kp at 1 h
CCc1c(C(=O)NCCc2ccc(N3CCCCC3)cc2)[nH]c2ccc(Cl)cc12 | 1.1

test system: not listed separately; experiment: Ratio of drug level in NMRI mouse brain to blood after 2 hrs; type: ADME, tissue-based; conditions: not given

Structure (SMILES) | Kp at 2 h
O=S(=O)(NCc1ccc(-c2ccc(F)nc2)cc1)c1cc2ccc(Cl)cc2[nH]1 | 2.7
O=S(=O)(NCc1ccc(-c2ccc(F)cc2F)cn1)c1cc2cc(Cl)ccc2[nH]1 | 3.3

test system: not listed separately; experiment: Half life in human liver microsomes at 3 uM in presence of NADPH by LC-MS/MS analysis; type: ADME, Microsome; conditions: not given

Structure (SMILES) | half-life at 3 µM [min]
Cc1c(S(=O)(=O)NCCc2ccccc2)[nH]c2ccccc12 | 3
COc1ccc2[nH]c(S(=O)(=O)NCc3ccc(-c4ccc(F)nc4)cc3)cc2c1 | < 15
CCc1c(S(=O)(=O)NCCc2ccc(N3CCOCC3)cc2)[nH]c2ccc(Cl)cc12 | 10
O=S(=O)(NCc1ccc(-c2ccc(F)nc2)cc1)c1cc2ccc(Cl)cc2[nH]1 | 22
O=S(=O)(NCc1ccc(-c2ccc(F)cc2F)cc1)c1cc2cc(Cl)ccc2[nH]1 | 111
O=S(=O)(NCc1ccc(-c2ccc(F)cc2)cc1F)c1cc2cc(Cl)ccc2[nH]1 | 146
CCc1c(S(=O)(=O)NCCc2ccc(N3CCCCC3)cc2)[nH]c2ccc(Cl)cc12 | 14
Cc1c(S(=O)(=O)NCCc2ccc(N(C)C)cc2)[nH]c2ccccc12 | 13
O=S(=O)(NCc1ccc(-c2ccc(F)cc2F)cn1)c1cc2cc(Br)ccc2[nH]1 | 53
CS(=O)(=O)c1ccc(-c2ccc(CNS(=O)(=O)c3cc4cc(Cl)ccc4[nH]3)cc2)cc1 | 41
Cc1ccc(CNS(=O)(=O)c2[nH]c3ccccc3c2C)cc1 | 7
COc1ccc(CNS(=O)(=O)c2cc3ccccc3[nH]2)cc1 | 2

test system: not listed separately; experiment: Cmax in NMRI mouse blood at 10 mg/kg, po; type: ADME, organism-based; design: dose 10 mg/kg, route oral; conditions: not given

Structure (SMILES) | Cmax [ng/mL]
O=S(=O)(NCc1ccc(-c2ccc(F)nc2F)cc1)c1cc2cc(Cl)ccc2[nH]1 | 672
O=S(=O)(NCc1ccc(-c2ccc(F)cc2F)cn1)c1cc2cc(Cl)ccc2[nH]1 | 848

test system: not listed separately; experiment: AUC (0 to 8 hrs) in NMRI mouse at 10 mg/kg, po; type: ADME, organism-based; design: time < 8 hr, dose 10 mg/kg, route oral; conditions: in vivo

Structure (SMILES) | AUC(0-t) at 8 h [ng·h/mL]
O=S(=O)(NCc1ccc(-c2ccc(F)nc2F)cc1)c1cc2cc(Cl)ccc2[nH]1 | 4380
O=S(=O)(NCc1ccc(-c2ccc(F)cc2F)cn1)c1cc2cc(Cl)ccc2[nH]1 | 4700

test system: not listed separately; experiment: Ratio of drug level in NMRI mouse brain to blood after 4 hrs; type: ADME, tissue-based; conditions: not given

Structure (SMILES) | Kp at 4 h
O=S(=O)(NCc1ccc(-c2ccc(F)nc2F)cc1)c1cc2cc(Cl)ccc2[nH]1 | 0.8

test system: not listed separately; experiment: Half life in NMRI mouse at 10 mg/kg, po; type: ADME, organism-based; conditions: in vivo

Structure (SMILES) | half-life [min]
O=S(=O)(NCc1ccc(-c2ccc(F)nc2F)cc1)c1cc2cc(Cl)ccc2[nH]1 | 474
O=S(=O)(NCc1ccc(-c2ccc(F)cc2F)cn1)c1cc2cc(Cl)ccc2[nH]1 | 180

test system: not listed separately; experiment: Tmax in NMRI mouse at 10 mg/kg, po; type: ADME, organism-based; conditions: in vivo

Structure (SMILES) | Tmax [h]
O=S(=O)(NCc1ccc(-c2ccc(F)nc2F)cc1)c1cc2cc(Cl)ccc2[nH]1 | 4
O=S(=O)(NCc1ccc(-c2ccc(F)cc2F)cn1)c1cc2cc(Cl)ccc2[nH]1 | 1

test system: not listed separately; experiment: Apparent permeability of the compound at 10 uM after 5 hrs by PAMPA; type: ADME; conditions: not given

Structure (SMILES) | Papp at 5 h, 10 µM [×10⁻⁶ cm/s]
O=S(=O)(NCc1ccc(-c2ccc(F)nc2F)cc1)c1cc2cc(Cl)ccc2[nH]1 | 141
CCc1c(C(=O)NCCc2ccc(N3CCCCC3)cc2)[nH]c2ccc(Cl)cc12 | 1.23
O=S(=O)(NCc1ccc(-c2ccc(F)cc2F)cn1)c1cc2cc(Cl)ccc2[nH]1 | 53.8
